Each structure is given as a SMILES string. Some results are limits rather than exact numbers.

In this assay the target is T1, AAK1 (Homo sapiens, UniProt Q2M2I8).
T1 construct: HA; expressed in transfected cells; host or cells: HEK293F
T1 sequence (Q2M2I8 1-863 isoform Q2M2I8-2): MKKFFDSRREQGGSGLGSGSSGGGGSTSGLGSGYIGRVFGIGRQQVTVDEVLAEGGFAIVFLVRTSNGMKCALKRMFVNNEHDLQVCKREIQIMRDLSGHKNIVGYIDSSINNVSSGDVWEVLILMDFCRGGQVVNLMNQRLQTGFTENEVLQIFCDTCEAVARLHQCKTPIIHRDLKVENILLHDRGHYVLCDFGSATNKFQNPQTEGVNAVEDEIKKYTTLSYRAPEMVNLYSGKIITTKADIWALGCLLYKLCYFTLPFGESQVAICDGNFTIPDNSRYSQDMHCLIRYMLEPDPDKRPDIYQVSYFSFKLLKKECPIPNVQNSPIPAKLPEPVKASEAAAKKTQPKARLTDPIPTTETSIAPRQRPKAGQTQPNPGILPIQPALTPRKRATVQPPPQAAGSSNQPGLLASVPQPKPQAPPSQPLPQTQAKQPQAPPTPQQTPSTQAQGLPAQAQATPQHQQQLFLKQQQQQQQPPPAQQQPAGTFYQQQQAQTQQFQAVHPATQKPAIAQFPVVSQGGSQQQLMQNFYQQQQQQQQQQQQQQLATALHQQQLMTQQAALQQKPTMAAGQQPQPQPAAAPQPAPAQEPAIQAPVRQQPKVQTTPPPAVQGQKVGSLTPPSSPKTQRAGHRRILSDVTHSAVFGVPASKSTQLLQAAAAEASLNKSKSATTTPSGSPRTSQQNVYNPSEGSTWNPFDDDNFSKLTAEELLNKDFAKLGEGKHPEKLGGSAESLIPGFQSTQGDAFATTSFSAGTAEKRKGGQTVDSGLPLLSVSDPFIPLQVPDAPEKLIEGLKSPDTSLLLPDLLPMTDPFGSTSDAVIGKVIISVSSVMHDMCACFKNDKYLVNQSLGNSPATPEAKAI
The assay can be described thus: HEK281 cell-based assay (phospho-mu2 Western blot in transfected HEK293F cells). As to conditions: 3 hours incubation, read-out: CBA IC50. In outline:
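HEK293F cells co-transfected with full-length human AAK1/HA and Flag/AP2M1 were treated next day with 5 compound concentrations (3-fold dilutions) in DMEM+0.5% FBS for 3 hours at 37° C. Lysates were Western blotted for phospho-mu2, with total mu2 detected by anti-Flag.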
For `CCOC(=O)N(CCNc1ccc2ncc(-c3ccc(C(N)=O)cc3)n2n1)C(C)C` [ethyl (2-((3-(4-carbamoylphenyl)imidazo[1,2-b]pyridazin-6-yl)amino)ethyl)(isopropyl)carbamate], the IC50 is ≤ 100 nM.

Consider `CCOC(=O)N(C)CCNc1ccc2ncc(-c3ccc(C(N)=O)cc3)n2n1` [ethyl (2-((3-(4-carbamoylphenyl)imidazo[1,2-b]pyridazin-6-yl)amino)ethyl)(methyl)carbamate], for which the IC50 was ≤ 100 nM.

Take `CCOC(=O)N(C)CCCNc1ccc2ncc(-c3ccc(C(C)=O)s3)n2n1` [ethyl (3-((3-(5-acetylthiophen-2-yl)imidazo[1,2-b]pyridazin-6-yl)amino)propyl)(methyl)carbamate]: the IC50 was ≤ 1000 nM.

As for `CCOC(=O)N(CCNc1ccc2ncc(-c3ccncc3OC)n2n1)C(C)C` [ethyl isopropyl(2-((3-(3-methoxypyridin-4-yl)imidazo[1,2-b]pyridazin-6-yl)amino)ethyl)carbamate], the IC50 is ≤ 10 nM.

With `CCOC(=O)N(C)CCNc1ccc2ncc(-c3ccc(C(=O)NC)cc3)n2n1` [ethyl methyl(2-((3-(4-(methylcarbamoyl)phenyl)imidazo[1,2-b]pyridazin-6-yl)amino)ethyl)carbamate], the IC50 was ≤ 100 nM.

On to `CCOC(=O)N(C)CCNc1ccc2ncc(-c3ccc(C(=O)NC)s3)n2n1` [ethyl methyl(2-((3-(5-(methylcarbamoyl)thiophen-2-yl)imidazo[1,2-b]pyridazin-6-yl)amino)ethyl)carbamate], for which the IC50 was ≤ 100 nM.

Consider `CC(C)COC(=O)N(C)CCNc1ccc2ncc(-c3ccc(C(N)=O)cc3)n2n1` [isobutyl (2-((3-(4-carbamoylphenyl)imidazo[1,2-b]pyridazin-6-yl)amino)ethyl)(methyl)carbamate], for which the IC50 was ≤ 100 nM.

Take `COc1cnccc1-c1cnc2ccc(NCCN(C(=O)OCC(C)C)C(C)C)nn12` [isobutyl isopropyl(2-((3-(3-methoxypyridin-4-yl)imidazo[1,2-b]pyridazin-6-yl)amino)ethyl)carbamate]: the IC50 was ≤ 100 nM.

For the compound `CNC(=O)c1ccc(-c2cnc3ccc(NCCN(C)C(=O)OCC(C)C)nn23)cc1` [isobutyl methyl(2-((3-(4-(methylcarbamoyl)phenyl)imidazo[1,2-b]pyridazin-6-yl)amino)ethyl)carbamate], the IC50 is ≤ 100 nM.

For `CC(C)OC(=O)N1CCN(c2ccc3ncc(-c4cccc5c4OCC5)n3n2)CC1` [isopropyl 4-(3-(2,3-dihydrobenzofuran-7-yl)imidazo[1,2-b]pyridazin-6-yl)piperazine-1-carboxylate], the IC50 was ≤ 100 nM.

For the compound `COc1cnccc1-c1cnc2ccc(N3CCN(C(=O)OC(C)C)CC3)nn12` [isopropyl 4-(3-(3-methoxypyridin-4-yl)imidazo[1,2-b]pyridazin-6-yl)piperazine-1-carboxylate], the half-inhibitory concentration (IC50) is ≤ 10 nM.

With `CC(C)OC(=O)N1CCN(c2ccc3ncc(-c4cccc5c4OCO5)n3n2)CC1` [isopropyl 4-(3-(benzo[d][1,3]dioxo1-4-yl)imidazo[1,2-b]pyridazin-6-yl)piperazine-1-carboxylate], the IC50 was ≤ 100 nM.

With `CNC(=O)c1cnc2ccc(N3CCN(C(=O)OC(C)C)CC3)nn12` [isopropyl 4-(3-(methylcarbamoyl)imidazo[1,2-b]pyridazin-6-yl)piperazine-1-carboxylate], the IC50 was ≤ 100 nM.

Turning to `CC(C)OC(=O)N1CCN(c2ccc3ncc(-c4ccncc4)n3n2)CC1` [isopropyl 4-(3-(pyridin-4-yl)imidazo[1,2-b]pyridazin-6-yl)piperazine-1-carboxylate], the IC50 is ≤ 100 nM.

For the compound `CC(C)OC(=O)N(C)CCNc1ccc2ncc(-c3cn[nH]c3)n2n1` [isopropyl (2-((3-(1H-pyrazol-4-yl)imidazo[1,2-b]pyridazin-6-yl)amino)ethyl)(methyl)carbamate], the IC50 is ≤ 100 nM.

In the case of `Cc1nc(C)c(-c2cnc3ccc(NCCN(C)C(=O)OC(C)C)nn23)s1` [isopropyl (2-((3-(2,4-dimethylthiazol-5-yl)imidazo[1,2-b]pyridazin-6-yl)amino)ethyl)(methyl)carbamate], the 50% inhibitory concentration (IC50) was ≤ 100 nM.

`CC(C)OC(=O)N(C)CCNc1ccc2ncc(-c3ccnc(N)c3)n2n1` [isopropyl (2-((3-(2-aminopyridin-4-yl)imidazo[1,2-b]pyridazin-6-yl)amino)ethyl)(methyl)carbamate]: the IC50 was ≤ 100 nM.

For the compound `CC(C)OC(=O)N(C)CCNc1ccc2ncc(-c3ccccc3F)n2n1` [isopropyl (2-((3-(2-fluorophenyl)imidazo[1,2-b]pyridazin-6-yl)amino)ethyl)(methyl)carbamate], the IC50 was ≤ 100 nM.

With `COc1ccccc1-c1cnc2ccc(NCCN(C)C(=O)OC(C)C)nn12` [isopropyl (2-((3-(2-methoxyphenyl)imidazo[1,2-b]pyridazin-6-yl)amino)ethyl)(methyl)carbamate], the IC50 was ≤ 100 nM.

In the case of `COc1cnccc1-c1cnc2ccc(NCCN(C)C(=O)OC(C)C)nn12` [isopropyl (2-((3-(3-methoxypyridin-4-yl)imidazo[1,2-b]pyridazin-6-yl)amino)ethyl)(methyl)carbamate], the IC50 was ≤ 100 nM.

For the compound `COc1cnccc1-c1cnc2ccc(NCCNC(=O)OC(C)C)nn12` [isopropyl (2-((3-(3-methoxypyridin-4-yl)imidazo[1,2-b]pyridazin-6-yl)amino)ethyl)carbamate], the IC50 was ≤ 100 nM.

In the case of `COc1cc(F)c(F)cc1-c1cnc2ccc(NCCN(C(=O)OC(C)C)C(C)C)nn12` [isopropyl (2-((3-(4,5-difluoro-2-methoxyphenyl)imidazo[1,2-b]pyridazin-6-yl)amino)ethyl)(isopropyl)carbamate], the IC50 was ≤ 100 nM.

With `CC(C)OC(=O)N(CCNc1ccc2ncc(-c3ccc(C(N)=O)cc3)n2n1)C(C)C` [isopropyl (2-((3-(4-carbamoylphenyl)imidazo[1,2-b]pyridazin-6-yl)amino)ethyl)(isopropyl)carbamate], the IC50 is ≤ 100 nM.

Take `CC(C)OC(=O)N(C)CCNc1ccc2ncc(-c3ccc(C(N)=O)cc3)n2n1` [isopropyl (2-((3-(4-carbamoylphenyl)imidazo[1,2-b]pyridazin-6-yl)amino)ethyl)(methyl)carbamate]: the IC50 was ≤ 10 nM.

For `COc1cc(F)ccc1-c1cnc2ccc(NCCN(C)C(=O)OC(C)C)nn12` [isopropyl (2-((3-(4-fluoro-2-methoxyphenyl)imidazo[1,2-b]pyridazin-6-yl)amino)ethyl)(methyl)carbamate], the IC50 is ≤ 100 nM.

Regarding `COc1ccc(F)cc1-c1cnc2ccc(NCCN(C(=O)OC(C)C)C(C)C)nn12` [isopropyl (2-((3-(5-fluoro-2-methoxyphenyl)imidazo[1,2-b]pyridazin-6-yl)amino)ethyl)(isopropyl)carbamate], the IC50 is ≤ 100 nM.

For the compound `COc1ccc(F)cc1-c1cnc2ccc(NCCN(C)C(=O)OC(C)C)nn12` [isopropyl (2-((3-(5-fluoro-2-methoxyphenyl)imidazo[1,2-b]pyridazin-6-yl)amino)ethyl)(methyl)carbamate], the IC50 is ≤ 10 nM.

For the compound `CC(C)OC(=O)N(C)CCCNc1ccc2ncc(-c3ccc(CN)cc3)n2n1` [isopropyl (3-((3-(4-(aminomethyl)phenyl)imidazo[1,2-b]pyridazin-6-yl)amino)propyl)(methyl)carbamate], the IC50 is ≤ 100 nM.

With `CC(=O)c1ccc(-c2cnc3ccc(NCCCN(C)C(=O)OC(C)C)nn23)s1` [isopropyl (3-((3-(5-acetylthiophen-2-yl)imidazo[1,2-b]pyridazin-6-yl)amino)propyl)(methyl)carbamate], the IC50 was ≤ 100 nM.

For `CCN(CCNc1ccc2ncc(-c3ccncc3OC)n2n1)C(=O)OC(C)C` [isopropyl ethyl(2-((3-(3-methoxypyridin-4-yl)imidazo[1,2-b]pyridazin-6-yl)amino)ethyl)carbamate], the IC50 is ≤ 100 nM.

As to `CCN(CCNc1ccc2ncc(-c3ccc(C(=O)NC)cc3)n2n1)C(=O)OC(C)C` [isopropyl ethyl(2-((3-(4-(methylcarbamoyl)phenyl)imidazo[1,2-b]pyridazin-6-yl)amino)ethyl)carbamate], the IC50 is ≤ 100 nM.

For `COc1ccccc1-c1cnc2ccc(NCCN(C(=O)OC(C)C)C(C)C)nn12` [isopropyl isopropyl(2-((3-(2-methoxyphenyl)imidazo[1,2-b]pyridazin-6-yl)amino)ethyl)carbamate], the IC50 is ≤ 100 nM.

`COc1cnccc1-c1cnc2ccc(NCCN(C(=O)OC(C)C)C(C)C)nn12` [isopropyl isopropyl(2-((3-(3-methoxypyridin-4-yl)imidazo[1,2-b]pyridazin-6-yl)amino)ethyl)carbamate]: the IC50 is ≤ 10 nM.

As to `CNC(=O)c1ccc(-c2cnc3ccc(NCCN(C(=O)OC(C)C)C(C)C)nn23)cc1` [isopropyl isopropyl(2-((3-(4-(methylcarbamoyl)phenyl)imidazo[1,2-b]pyridazin-6-yl)amino)ethyl)carbamate], the IC50 is ≤ 100 nM.

Turning to `CC(C)OC(=O)N(CCNc1ccc2ncc(-c3ccncc3)n2n1)C(C)C` [isopropyl isopropyl(2-((3-(pyridin-4-yl)imidazo[1,2-b]pyridazin-6-yl)amino)ethyl)carbamate], the IC50 is ≤ 100 nM.

As for `CC(C)OC(=O)N(CCNc1ccc2ncc(-c3ccccc3)n2n1)C(C)C` [isopropyl isopropyl(2-((3-phenylimidazo[1,2-b]pyridazin-6-yl)amino)ethyl)carbamate], the IC50 was ≤ 100 nM.

`CNC(=O)c1ccc(-c2cnc3ccc(NCCN(C)C(=O)OC(C)C)nn23)cc1` [isopropyl methyl(2-((3-(4-(methylcarbamoyl)phenyl)imidazo[1,2-b]pyridazin-6-yl)amino)ethyl)carbamate]: the IC50 was ≤ 100 nM.

As to `CC(C)OC(=O)N(C)CCNc1ccc2ncc(-c3ccc(C4CCCN4)cc3)n2n1` (stereo not drawn) [isopropyl methyl(2-((3-(4-(pyrrolidin-2-yl)phenyl)imidazo[1,2-b]pyridazin-6-yl)amino)ethyl)carbamate], the IC50 was ≤ 10 nM.

For the compound `CC(C)OC(=O)N(C)CCNc1ccc2ncc(-c3cscn3)n2n1` [isopropyl methyl(2-((3-(thiazol-4-yl)imidazo[1,2-b]pyridazin-6-yl)amino)ethyl)carbamate], the IC50 is ≤ 100 nM.

As usually defined, the IC50 is the concentration needed to halve the response being measured.

The record behind these values is patent US8969565B2, “Imidazo[1,2-b]pyridazine-based compounds, compositions comprising them, and methods of their use” (Lexicon Pharmaceuticals, Inc., priority 2012, dated 2015).
